Measured values as given in patent publication US8076487B2, “Pyridone derivative and herbicide” (Kumiai Chemical Industry Co., Ltd., priority 2006, dated 2011).

Tests used:
Assay type in all cases: in vivo
[1] = system: Japanese bulrush (Scirpus juncoides Roxb.); assay: Test Example 1: herbicidal effect by soil application to paddy field; conditions: paddy field soil application; active ingredient 1,000 g per 1 hectare; wettable powder added dropwise to water surface the day after sowing; examined on the 21st day after application
Method in brief: (§1)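 Under greenhouse conditions, seeds sown on puddled paddy soil in 100 cm2 pots under 3 cm of standing water received the test compound; injury was assessed with a standard scoring scheme three weeks (day 21) after treatment.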

[2] = system: early watergrass (Echinochloa oryzicola Vasing); assay: as above; conditions: paddy field soil application; active ingredient 1,000 g per 1 hectare; wettable powder added dropwise to water surface the day after sowing; examined on the 21st day after application
Method in brief: as §1

[3] = system: heartshape false pickerelweed (Monochoria vaginalis (Burm.f.) C.Presl); assay: as above; conditions: paddy field soil application; active ingredient 1,000 g per 1 hectare; wettable powder added dropwise to water surface the day after sowing; examined on the 21st day after application
Method in brief: as §1

[4] = system: barnyardgrass (Echinochloa crus-galli (L.) P. Beauv. var. crus-galli); assay: Test Example 2: herbicidal effect by soil application to upland field; conditions: soil surface spray, upland field soil, 1,000 g active ingredient per hectare, 21st day after application
Method in brief: (§2)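 Soil-applied wettable powder, 1,000 g a.i./ha, sprayed after sowing onto covered field soil. Effect rated on a standard scale 21 days later in a greenhouse.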

[5] = system: green foxtail (Setaria viridis (L.) P. Beauv.); assay: as above; conditions: soil surface spray, upland field soil, 1,000 g active ingredient per hectare, 21st day after application
Method in brief: as §2

[6] = system: slender amaranth (Amaranthus viridis L.); assay: as above; conditions: soil surface spray, upland field soil, 1,000 g active ingredient per hectare, 21st day after application
Method in brief: as §2

[7] = system: velvetleaf (Abutilon theophrasti medicus); assay: as above; conditions: soil surface spray, upland field soil, 1,000 g active ingredient per hectare, 21st day after application
Method in brief: as §2

[8] = system: barnyardgrass (Echinochloa crus-galli (L.) P. Beauv. var. crus-galli); assay: Test Example 3: herbicidal effect by application to upland field (foliage treatment); conditions: foliage treatment, 1,000 g active ingredient per 1 hectare, 14th day after application, greenhouse
Method in brief: (§3)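 Read-out is a visual herbicidal-effect grade on a standard scale, taken on the 14th day after a single foliar spray. The spray was wettable powder diluted in water, 1,000 g active ingredient/ha at 1,000 L/ha, applied to greenhouse plants two weeks after sowing.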

[9] = system: green foxtail (Setaria viridis (L.) P. Beauv.); assay: as above; conditions: foliage treatment, 1,000 g active ingredient per 1 hectare, 14th day after application, greenhouse
Method in brief: as §3

[10] = system: slender amaranth (Amaranthus viridis L.); assay: as above; conditions: foliage treatment, 1,000 g active ingredient per 1 hectare, 14th day after application, greenhouse
Method in brief: as §3

[11] = system: velvetleaf (Abutilon theophrasti medicus); assay: as above; conditions: foliage treatment, 1,000 g active ingredient per 1 hectare, 14th day after application, greenhouse
Method in brief: as §3

| Compound | herbicidal effect, Scirpus juncoides Roxb. [1] | herbicidal effect, Echinochloa oryzicola Vasing [2] | herbicidal effect, Monochoria vaginalis (Burm. f.) C. Presl [3] | herbicidal effect (index), Barnyardgrass [4] | herbicidal effect (index), Green Foxtail [5] | herbicidal effect (index), Slender Amaranth [6] | herbicidal effect (index), Velvetleaf [7] | herbicidal effect, Barnyardgrass [8] | herbicidal effect, Green Foxtail [9] | herbicidal effect, Slender Amaranth [10] | herbicidal effect, Velvetleaf [11] |
| --- | --- | --- | --- | --- | --- | --- | --- | --- | --- | --- | --- |
| O=C1CCCC(O)=C1C(=O)c1ccc(C(F)(F)F)n(-c2ccsc2)c1=O [I-148] | 5 (90% or more of herbicidal effect and crop phytotoxicity) | 5 (90% or more of herbicidal effect and crop phytotoxicity) | 5 (90% or more of herbicidal effect and crop phytotoxicity) | 5 (90% or more of herbicidal effect and crop phytotoxicity) | 5 (90% or more of herbicidal effect and crop phytotoxicity) | 5 (90% or more of herbicidal effect and crop phytotoxicity) | 5 (90% or more of herbicidal effect and crop phytotoxicity) | 5 (90% or more of herbicidal effect and crop phytotoxicity) | 5 (90% or more of herbicidal effect and crop phytotoxicity) | 5 (90% or more of herbicidal effect and crop phytotoxicity) | 5 (90% or more of herbicidal effect and crop phytotoxicity) |
| Cc1ccsc1-n1c(C(F)(F)F)ccc(C(=O)C2=C(O)CCCC2=O)c1=O [I-149] | 5 (90% or more of herbicidal effect and crop phytotoxicity) | 5 (90% or more of herbicidal effect and crop phytotoxicity) | 5 (90% or more of herbicidal effect and crop phytotoxicity) | 5 (90% or more of herbicidal effect and crop phytotoxicity) | 5 (90% or more of herbicidal effect and crop phytotoxicity) | 5 (90% or more of herbicidal effect and crop phytotoxicity) | 5 (90% or more of herbicidal effect and crop phytotoxicity) | 5 (90% or more of herbicidal effect and crop phytotoxicity) | 5 (90% or more of herbicidal effect and crop phytotoxicity) | 5 (90% or more of herbicidal effect and crop phytotoxicity) | 5 (90% or more of herbicidal effect and crop phytotoxicity) |
| O=C1CCCC(O)=C1C(=O)c1ccc(C(F)(F)F)n(-c2ccccn2)c1=O [I-150] | 5 (90% or more of herbicidal effect and crop phytotoxicity) | 5 (90% or more of herbicidal effect and crop phytotoxicity) | 5 (90% or more of herbicidal effect and crop phytotoxicity) | 5 (90% or more of herbicidal effect and crop phytotoxicity) | 5 (90% or more of herbicidal effect and crop phytotoxicity) | 5 (90% or more of herbicidal effect and crop phytotoxicity) | 5 (90% or more of herbicidal effect and crop phytotoxicity) | 5 (90% or more of herbicidal effect and crop phytotoxicity) | 5 (90% or more of herbicidal effect and crop phytotoxicity) | 5 (90% or more of herbicidal effect and crop phytotoxicity) | 5 (90% or more of herbicidal effect and crop phytotoxicity) |
| COc1cncc(-n2c(C(F)(F)F)ccc(C(=O)C3=C(O)CCCC3=O)c2=O)c1 [I-151] | 5 (90% or more of herbicidal effect and crop phytotoxicity) | 5 (90% or more of herbicidal effect and crop phytotoxicity) | 5 (90% or more of herbicidal effect and crop phytotoxicity) | 5 (90% or more of herbicidal effect and crop phytotoxicity) | 5 (90% or more of herbicidal effect and crop phytotoxicity) | 5 (90% or more of herbicidal effect and crop phytotoxicity) | 5 (90% or more of herbicidal effect and crop phytotoxicity) | 5 (90% or more of herbicidal effect and crop phytotoxicity) | 5 (90% or more of herbicidal effect and crop phytotoxicity) | 5 (90% or more of herbicidal effect and crop phytotoxicity) | 5 (90% or more of herbicidal effect and crop phytotoxicity) |
| O=C1CCCC(O)=C1C(=O)c1ccc(C(F)(F)F)n(CC2CCOC2)c1=O (centres unmarked) [I-154] | 5 (90% or more of herbicidal effect and crop phytotoxicity) | 5 (90% or more of herbicidal effect and crop phytotoxicity) | 5 (90% or more of herbicidal effect and crop phytotoxicity) | 4 (70 to less than 90% of herbicidal effect and crop phytotoxicity) | 3 (50 to less than 70% of herbicidal effect and crop phytotoxicity) | 5 (90% or more of herbicidal effect and crop phytotoxicity) | 5 (90% or more of herbicidal effect and crop phytotoxicity) | 4 (70 to less than 90% of herbicidal effect and crop phytotoxicity) | 5 (90% or more of herbicidal effect and crop phytotoxicity) | 5 (90% or more of herbicidal effect and crop phytotoxicity) | 5 (90% or more of herbicidal effect and crop phytotoxicity) |
| Nn1c(C(F)(F)F)ccc(C(=O)C2=C(O)CCCC2=O)c1=O [I-156] | 5 (90% or more of herbicidal effect and crop phytotoxicity) | 5 (90% or more of herbicidal effect and crop phytotoxicity) | 5 (90% or more of herbicidal effect and crop phytotoxicity) | 5 (90% or more of herbicidal effect and crop phytotoxicity) | 4 (70 to less than 90% of herbicidal effect and crop phytotoxicity) | 5 (90% or more of herbicidal effect and crop phytotoxicity) | 5 (90% or more of herbicidal effect and crop phytotoxicity) | 5 (90% or more of herbicidal effect and crop phytotoxicity) | 4 (70 to less than 90% of herbicidal effect and crop phytotoxicity) | 5 (90% or more of herbicidal effect and crop phytotoxicity) | 5 (90% or more of herbicidal effect and crop phytotoxicity) |
| CCNn1c(C(F)(F)F)ccc(C(=O)C2=C(O)CCCC2=O)c1=O [I-158] | 5 (90% or more of herbicidal effect and crop phytotoxicity) | 5 (90% or more of herbicidal effect and crop phytotoxicity) | 5 (90% or more of herbicidal effect and crop phytotoxicity) | 5 (90% or more of herbicidal effect and crop phytotoxicity) | 5 (90% or more of herbicidal effect and crop phytotoxicity) | 5 (90% or more of herbicidal effect and crop phytotoxicity) | 5 (90% or more of herbicidal effect and crop phytotoxicity) | 5 (90% or more of herbicidal effect and crop phytotoxicity) | 5 (90% or more of herbicidal effect and crop phytotoxicity) | 5 (90% or more of herbicidal effect and crop phytotoxicity) | 5 (90% or more of herbicidal effect and crop phytotoxicity) |
